We go through four molecules from US7259153B2, “Drug formulation and delivery using crystalline methylated cyclodextrins” (Supernus Pharmaceuticals, priority 2003, dated 2007).

Values after ≈ are worked out from the molar mass of the structure shown. Where two headings read alike, the source gives them in different places.

The term solubility denotes the dissolved amount per volume that the medium holds.

The conditions of series [1]: water; cited from earlier work.
Series [2] is described as follows: Equilibrium solubility of drug substance in media with solubilizer (excess drug, rotated 48 hours at room temperature, filtered, HPLC). Type of series: physicochemical. The following applies: for solubility at 48 h: thermodynamic from solid; for solubility enhancement ratio: vs vehicle alone. Here is the method:
An excess of drug substance was added to 20 ml glass liquid scintillation vials (Kimble Glass Inc., Vineland, N.J.) containing 10 ml of the media with a specific amount of solubilizer. […] The samples were filtered through a 0.45 μm filter (Acrodisc CR PTFE membrane filter, Gelman Sciences, Ann Arbor, Mich.). After discarding the first mL of the filtrates to eliminate any membrane adsorptive effect, the filtrates were collected for high-performance liquid chromatography (HPLC) analysis for drug concentration.

The nature of series [3]: Water solubility of the cyclodextrin itself. The class given is physicochemical. Particulars: room temperature.
The nature of series [4]: Stability of crystalline methylated β-cyclodextrin against heat and humidity. Type of series: physicochemical.
Where [5] appears, read: 2% (w/v) Cryst. Methylated β-CD, aqueous.
Where [6] appears, read: 2% (w/v) HP-β-cyclodextrin, aqueous.
Setting [7] is: 5% (w/v) Cryst. Methylated β-CD, aqueous.
The mark [8] stands for this setting: 5% (w/v) HP-β-cyclodextrin, aqueous.
Where [9] appears, read: 10% (w/v) Cryst. Methylated β-CD, aqueous.
The mark [10] stands for this setting: 10% (w/v) HP-β-cyclodextrin, aqueous.

Turning to `OC[C@H]1O[C@@H]2O[C@H]3[C@H](O)[C@@H](O)[C@@H](O[C@H]4[C@H](O)[C@@H](O)[C@@H](O[C@H]5[C@H](O)[C@@H](O)[C@@H](O[C@H]6[C@H](O)[C@@H](O)[C@@H](O[C@H]7[C@H](O)[C@@H](O)[C@@H](O[C@H]8[C@H](O)[C@@H](O)[C@@H](O[C@H]1[C@H](O)[C@H]2O)O[C@@H]8CO)O[C@@H]7CO)O[C@@H]6CO)O[C@@H]5CO)O[C@@H]4CO)O[C@@H]3CO` [β-cyclodextrin], the aqueous solubility in series [1] was 1.8 % w/v.

On to `NC(=O)N1c2ccccc2CC(=O)c2ccccc21` [Oxcarbazepine], for which the solubility at 48 h worked out at 150 µg/mL (≈ 0.595 mM) in series [2] (1% (w/v) Cavasol W7M, aqueous, aqueous with cosolvent or surfactant or cyclodextrin, 1% (w/v) Cavasol W7M, aqueous, read-out: Oxcarbazepine Solubility); 230 µg/mL (≈ 0.912 mM) in series [2] (1% (w/v) Cryst. Methylated β-CD, aqueous, aqueous with cosolvent or surfactant or cyclodextrin, 1% (w/v) Cryst. Methylated β-CD, aqueous, read-out: Oxcarbazepine Solubility); 130 µg/mL (≈ 0.515 mM) in series [2] (1% (w/v) HP-β-cyclodextrin, aqueous, aqueous with cosolvent or surfactant or cyclodextrin, 1% (w/v) HP-β-cyclodextrin, aqueous, read-out: Oxcarbazepine Solubility); 120 µg/mL (≈ 0.476 mM) in series [2] (1% (w/v) Tween 80, aqueous, aqueous with cosolvent or surfactant or cyclodextrin, 1% (w/v) Tween 80, aqueous, read-out: Oxcarbazepine Solubility); 240 µg/mL (≈ 0.951 mM) in series [2] (2% (w/v) Cavasol W7M, aqueous, aqueous with cosolvent or surfactant or cyclodextrin, 2% (w/v) Cavasol W7M, aqueous, read-out: Oxcarbazepine Solubility); 310 µg/mL (≈ 1.23 mM) in series [2] (2% (w/v) Cryst. Methylated β-CD, aqueous, aqueous with cosolvent or surfactant or cyclodextrin, 2% (w/v) Cryst. Methylated β-CD, aqueous, read-out: Oxcarbazepine Solubility). Moreover, the solubility at 48 h was determined as 190 µg/mL (≈ 0.753 mM) in series [2] (2% (w/v) HP-β-cyclodextrin, aqueous, aqueous with cosolvent or surfactant or cyclodextrin, 2% (w/v) HP-β-cyclodextrin, aqueous, read-out: Oxcarbazepine Solubility); 170 µg/mL (≈ 0.674 mM) in series [2] (2% (w/v) Tween 80, aqueous, aqueous with cosolvent or surfactant or cyclodextrin, 2% (w/v) Tween 80, aqueous, read-out: Oxcarbazepine Solubility); 290 µg/mL (≈ 1.15 mM) in series [2] (5% (w/v) Tween 80, aqueous, aqueous with cosolvent or surfactant or cyclodextrin, 5% (w/v) Tween 80, aqueous, read-out: Oxcarbazepine Solubility); 490 µg/mL (≈ 1.94 mM) in series [2] (aqueous media with solubilizer, aqueous with cosolvent or surfactant or cyclodextrin, 5% (w/v) Cavasol W7M, aqueous, read-out: Oxcarbazepine Solubility); 820 µg/mL (≈ 3.25 mM) in series [2] (aqueous media with solubilizer, aqueous with cosolvent or surfactant or cyclodextrin, 5% (w/v) Cryst. Methylated β-CD, aqueous, read-out: Oxcarbazepine Solubility); 340 µg/mL (≈ 1.35 mM) in series [2] (aqueous media with solubilizer, aqueous with cosolvent or surfactant or cyclodextrin, 5% (w/v) HP-β-cyclodextrin, aqueous, read-out: Oxcarbazepine Solubility). Moreover, the solubility at 48 h in series [2] (aqueous media with solubilizer, aqueous with cosolvent or surfactant or cyclodextrin, 10% (w/v) Cavasol W7M, aqueous, read-out: Oxcarbazepine Solubility) turned out to be 670 µg/mL (≈ 2.66 mM); in series [2] (aqueous media with solubilizer, aqueous with cosolvent or surfactant or cyclodextrin, 10% (w/v) Cryst. Methylated β-CD, aqueous, read-out: Oxcarbazepine Solubility), 1490 µg/mL (≈ 5.91 mM); in series [2] (aqueous media with solubilizer, aqueous with cosolvent or surfactant or cyclodextrin, 10% (w/v) HP-β-cyclodextrin, aqueous, read-out: Oxcarbazepine Solubility), 670 µg/mL (≈ 2.66 mM); in series [2] (aqueous media with solubilizer, aqueous with cosolvent or surfactant or cyclodextrin, 10% (w/v) Tween 80, aqueous, read-out: Oxcarbazepine Solubility), 500 µg/mL (≈ 1.98 mM); in series [2] (water, water, 0% (w/v) solubilizer, read-out: Oxcarbazepine Solubility), 70 µg/mL (≈ 0.277 mM). The solubility enhancement ratio in series [2] (1% (w/v) Cavasol W7M, aqueous) worked out at 2.1; in series [2] (1% (w/v) Cryst. Methylated β-CD, aqueous) it was 3.3; in series [2] (1% (w/v) HP-β-cyclodextrin, aqueous), 1.9; in series [2] (1% (w/v) Tween 80, aqueous) it was 1.7; in series [2] (2% (w/v) Cavasol W7M, aqueous), 3.4; in series [2] (setting [5]), 4.4. Also, the solubility enhancement ratio is 2.7 in series [2] (setting [6]); 2.4 in series [2] (2% (w/v) Tween 80, aqueous); 7.0 in series [2] (5% (w/v) Cavasol W7M, aqueous); 11.7 in series [2] (setting [7]); 4.9 in series [2] (setting [8]); 4.1 in series [2] (5% (w/v) Tween 80, aqueous). Besides, the solubility enhancement ratio in series [2] (10% (w/v) Cavasol W7M, aqueous) turned out to be 9.6; in series [2] (setting [9]), 21.3; in series [2] (setting [10]), 9.6; in series [2] (10% (w/v) Tween 80, aqueous), 7.1. Also, the “Oxcarbazepine Solubility” value in series [2] (water, 0% (w/v) solubilizer) turned out to be 70 µg/mL.

Take crystalline methylated β-cyclodextrin: the water solubility result in series [3] is listed as “around 15%”. The “stability against heat and humidity” value in series [4] was “stable against heat and humidity”.

As to `NC(=O)N1c2ccccc2C=Cc2ccccc21` [Carbamazepine], the solubility enhancement ratio in series [2] (1% (w/v) β-Cyclodextrin, aqueous) was determined as 5.9; in series [2] (2% (w/v) Cavasol W7M, aqueous) it was 9.5; in series [2] (setting [5]), 13.7; in series [2] (setting [6]), 11.0; in series [2] (2% (w/v) β-Cyclodextrin, aqueous), 10.5; in series [2] (5% (w/v) Cavasol W7M, aqueous), 22.8. Further, the solubility enhancement ratio came to 31.8 in series [2] (setting [7]); 25.4 in series [2] (setting [8]); 33.3 in series [2] (7.5% (w/v) Cavasol W7M, aqueous); 47.5 in series [2] (7.5% (w/v) Cryst. Methylated β-CD, aqueous); 43.1 in series [2] (7.5% (w/v) HP-β-cyclodextrin, aqueous); 46.4 in series [2] (10% (w/v) Cavasol W7M, aqueous). Moreover, the solubility enhancement ratio in series [2] (setting [9]) is 61.6; in series [2] (setting [10]), 53.3; in series [2] (20% (w/v) Cavasol W7M, aqueous), 96.5; in series [2] (20% (w/v) Cryst. Methylated β-CD, aqueous), 132.4; in series [2] (20% (w/v) HP-β-cyclodextrin, aqueous), 94.8. In addition, the solubility at 48 h turned out to be 669 µg/mL (≈ 2.83 mM) in series [2] (1% (w/v) β-cyclodextrin in water, aqueous with cosolvent or surfactant or cyclodextrin, 1% (w/v) β-Cyclodextrin, aqueous, read-out: Carbamazepine Solubility); 1070 µg/mL (≈ 4.52 mM) in series [2] (2% (w/v) Cavasol W7M in water, aqueous with cosolvent or surfactant or cyclodextrin, 2% (w/v) Cavasol W7M, aqueous, read-out: Carbamazepine Solubility); 1240 µg/mL (≈ 5.26 mM) in series [2] (2% (w/v) HP-β-cyclodextrin in water, aqueous with cosolvent or surfactant or cyclodextrin, 2% (w/v) HP-β-cyclodextrin, aqueous, read-out: Carbamazepine Solubility); 1540 µg/mL (≈ 6.53 mM) in series [2] (2% (w/v) crystalline methylated β-cyclodextrin in water, aqueous with cosolvent or surfactant or cyclodextrin, 2% (w/v) Cryst. Methylated β-CD, aqueous, read-out: Carbamazepine Solubility); 1190 µg/mL (≈ 5.02 mM) in series [2] (2% (w/v) β-cyclodextrin in water, aqueous with cosolvent or surfactant or cyclodextrin, 2% (w/v) β-Cyclodextrin, aqueous, read-out: Carbamazepine Solubility); 2580 µg/mL (≈ 10.9 mM) in series [2] (5% (w/v) Cavasol W7M in water, aqueous with cosolvent or surfactant or cyclodextrin, 5% (w/v) Cavasol W7M, aqueous, read-out: Carbamazepine Solubility). Moreover, the solubility at 48 h in series [2] (5% (w/v) HP-β-cyclodextrin in water, aqueous with cosolvent or surfactant or cyclodextrin, 5% (w/v) HP-β-cyclodextrin, aqueous, read-out: Carbamazepine Solubility) stood at 2880 µg/mL (≈ 12.2 mM); in series [2] (5% (w/v) crystalline methylated β-cyclodextrin in water, aqueous with cosolvent or surfactant or cyclodextrin, 5% (w/v) Cryst. Methylated β-CD, aqueous, read-out: Carbamazepine Solubility), 3590 µg/mL (≈ 15.2 mM); in series [2] (7.5% (w/v) Cavasol W7M in water, aqueous with cosolvent or surfactant or cyclodextrin, 7.5% (w/v) Cavasol W7M, aqueous, read-out: Carbamazepine Solubility), 3760 µg/mL (≈ 15.9 mM); in series [2] (7.5% (w/v) HP-β-cyclodextrin in water, aqueous with cosolvent or surfactant or cyclodextrin, 7.5% (w/v) HP-β-cyclodextrin, aqueous, read-out: Carbamazepine Solubility), 4870 µg/mL (≈ 20.6 mM); in series [2] (7.5% (w/v) crystalline methylated β-cyclodextrin in water, aqueous with cosolvent or surfactant or cyclodextrin, 7.5% (w/v) Cryst. Methylated β-CD, aqueous, read-out: Carbamazepine Solubility), 5370 µg/mL (≈ 22.7 mM); in series [2] (10% (w/v) Cavasol W7M in water, aqueous with cosolvent or surfactant or cyclodextrin, 10% (w/v) Cavasol W7M, aqueous, read-out: Carbamazepine Solubility), 5250 µg/mL (≈ 22.2 mM). The solubility at 48 h in series [2] (10% (w/v) HP-β-cyclodextrin in water, aqueous with cosolvent or surfactant or cyclodextrin, 10% (w/v) HP-β-cyclodextrin, aqueous, read-out: Carbamazepine Solubility) came to 6020 µg/mL (≈ 25.5 mM); in series [2] (10% (w/v) crystalline methylated β-cyclodextrin in water, aqueous with cosolvent or surfactant or cyclodextrin, 10% (w/v) Cryst. Methylated β-CD, aqueous, read-out: Carbamazepine Solubility), 6960 µg/mL (≈ 29.5 mM); in series [2] (20% (w/v) Cavasol W7M in water, aqueous with cosolvent or surfactant or cyclodextrin, 20% (w/v) Cavasol W7M, aqueous, read-out: Carbamazepine Solubility), 10900 µg/mL (≈ 46.2 mM); in series [2] (20% (w/v) HP-β-cyclodextrin in water, aqueous with cosolvent or surfactant or cyclodextrin, 20% (w/v) HP-β-cyclodextrin, aqueous, read-out: Carbamazepine Solubility), 10700 µg/mL (≈ 45.3 mM); in series [2] (20% (w/v) crystalline methylated β-cyclodextrin in water, aqueous with cosolvent or surfactant or cyclodextrin, 20% (w/v) Cryst. Methylated β-CD, aqueous (heating to dissolve CD), read-out: Carbamazepine Solubility), 15000 µg/mL (≈ 63.3 mM); in series [2] (PEG 400, organic solvent or mixture, vehicle: PEG 400, read-out: Carbamezepine Solubility), 77900 µg/mL (≈ 330 mM). Further, the solubility at 48 h in series [2] (Transcutol, organic solvent or mixture, vehicle: Transcutol, read-out: Carbamezepine Solubility) came out at 78100 µg/mL (≈ 331 mM); in series [2] (propylene glycol, organic solvent or mixture, vehicle: Propylene Glycol, read-out: Carbamezepine Solubility) it was 35300 µg/mL (≈ 150 mM). Also, the “carbamazepine solubility in propylene glycol relative to aqueous solubility” value in series [2] (propylene glycol vs water) was “about 310 fold”. Besides, the “Carbamazepine Solubility” value in series [2] (water, 0% (w/v) cyclodextrin) was 113 µg/mL.
